The target of one experiment is Adenosine A2A receptor (Homo sapiens (Human), UniProt P29274). Kind of experiment: A2A Tag-lite HTRF Assay. The settings on record: Tag-lite Adenosine A2A labeled cells; A2A Receptor Red antagonist fluorescent ligand 12.5 nM; one-site competitive binding model; read-out: A2A_Ki. An excerpt: The final concentration of DMSO was 1%.
Background: In TR-FRET formats the signal depends on donor and acceptor labels being close together.

The target in experiment [1] is human adenosine A2B receptor (Homo sapiens (Human), UniProt P29275). Kind of experiment: Adenosine A2B Receptor Cyclic AMP GS Assay. The class given is cell-based. The settings on record: HEK-293 cells expressing human A2B receptor; agonist NECA at 12 nM; cAMP accumulation (FRET); read-out: A2B_cAMP_EC50. On the procedure: Stably transfected HEK-293 cells expressing the human adenosine A2B receptor (Perkin Elmer) were maintained in MEM culture medium with 10% FBS and 100 μg/ml Geneticin (Life Technologies). 18 to 24 hours prior to assay, geneticin was removed from culture. The cisbio cAMP-GS Dynamic kit utilizing the FRET (Fluorescence Resonance Energy Transfer) technology was used to measure cAMP accumulation in the cells. Compounds of the present disclosure at an appropriate concentration were mixed with 10000 cells/well in white 96 well half area plates (Perkin Elmer) for 30 min at RT gently shaking. Agonist, NECA (R&D Technologies) at 12 nM was added to each well for 60 min at RT gently shaking. Detection reagents, d2-labeled cAMP (acceptor) and anti-cAMP cryptate (donor) were added to each well for 60 min at RT gently shaking. Plates were read on Pherastar (BMG Labtech), fluorescence ratio 665/620 was calculated and EC50 determination was performed by fitting the curve of percent of control versus the log of the compound concentration using GraphPad Prism.
human adenosine A2B receptor, sequence (P29275 whole entry): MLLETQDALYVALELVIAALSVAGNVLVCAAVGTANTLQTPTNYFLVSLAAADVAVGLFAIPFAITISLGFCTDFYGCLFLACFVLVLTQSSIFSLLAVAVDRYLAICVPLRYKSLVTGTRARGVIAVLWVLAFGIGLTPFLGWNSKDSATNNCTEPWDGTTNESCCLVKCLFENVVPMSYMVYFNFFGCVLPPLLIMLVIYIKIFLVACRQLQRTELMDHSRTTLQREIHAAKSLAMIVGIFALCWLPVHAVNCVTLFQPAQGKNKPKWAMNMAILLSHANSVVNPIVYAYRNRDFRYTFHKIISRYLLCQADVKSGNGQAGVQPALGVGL

Adenosine A2A receptor, sequence (P29274 whole entry): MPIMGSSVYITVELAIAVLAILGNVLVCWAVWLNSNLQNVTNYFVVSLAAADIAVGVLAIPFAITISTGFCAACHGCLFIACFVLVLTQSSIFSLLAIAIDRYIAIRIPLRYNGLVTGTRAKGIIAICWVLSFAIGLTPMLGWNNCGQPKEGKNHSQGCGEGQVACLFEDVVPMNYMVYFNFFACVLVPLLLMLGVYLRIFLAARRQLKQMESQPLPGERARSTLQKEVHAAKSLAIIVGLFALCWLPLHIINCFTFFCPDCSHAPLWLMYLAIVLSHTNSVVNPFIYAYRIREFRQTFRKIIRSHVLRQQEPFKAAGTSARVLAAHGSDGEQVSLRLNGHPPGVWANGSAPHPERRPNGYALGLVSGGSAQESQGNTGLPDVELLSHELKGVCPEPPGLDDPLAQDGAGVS

`Cc1cc(-c2c(-c3ccccc3)nc(N)n3cc(-c4ccccc4)nc23)ccn1` [Example 10, 8-(2-Methylpyridin-4-yl)-2,7-diphenylimidazo[1,2-c]pyrimidin-5-amine]: the Ki on Adenosine A2A receptor was < 10 nM. Moreover, the EC50 in experiment [1] fell in the range of 100 to 1000 nM.

As to `Cc1cc(-c2c(-c3ccccc3)nc(N)n3cc(C(N)=O)nc23)ccn1` [Example 14, 5-Amino-8-(2-methylpyridin-4-yl)-7-phenylimidazo[1,2-c]pyrimidine-2-carboxamide], the Ki at Adenosine A2A receptor is < 10 nM. Further, the EC50 in experiment [1] was 10 to 100 nM.

As for `CCNC(=O)c1cn2c(N)nc(-c3ccccc3)c(C3=CCN(C(N)=O)CC3)c2n1` [Example 15, 5-Amino-8-(1-carbamoyl-1,2,3,6-tetrahydropyridin-4-yl)-N-ethyl-7-phenylimidazo[1,2-c]pyrimidine-2-carboxamide], on Adenosine A2A receptor, the Ki was < 10 nM. For the same molecule, in experiment [1], the EC50 lay in the range of 100 to 1000 nM.

Consider `CCNC(=O)c1cn2c(N)nc(-c3ccccc3)c(C3CCN(C(N)=O)CC3)c2n1` [Example 16, 5-Amino-8-(1-carbamoylpiperidin-4-yl)-N-ethyl-7-phenylimidazo[1,2-c]pyrimidine-2-carboxamide], for which, on Adenosine A2A receptor, the Ki was < 10 nM. Further, in experiment [1], the EC50 fell in the range of 100 to 1000 nM.

On to `CCNC(=O)c1nc2c(-c3ccnc(OC)c3)c(-c3cccc(C#N)c3)nc(N)n2c1OCCO` [Example 17, 5-Amino-7-(3-cyanophenyl)-JV-ethyl-3-(2-hydroxyethoxy)-8-(2-methoxypyridin-4-yl)imidazo[1,2-c]pyrimidine-2-carboxamide], for which the Ki at Adenosine A2A receptor is < 10 nM. For the same molecule, in experiment [1], the EC50 fell in the range of 10 to 100 nM.

`CCNC(=O)c1nc2c(-c3ccnc(OC)c3)c(-c3cccc(C#N)c3)nc(N)n2c1C` [Example 18, 5-Amino-7-(3-cyanophenyl)-N-ethyl-8-(2-methoxypyridin-4-yl)-3-methylimidazo[1,2-c]pyrimidine-2-carboxamide]: on Adenosine A2A receptor, the Ki fell in the range of 10 to 100 nM. Further, the EC50 in experiment [1] was in the range of 10 to 100 nM.

On to `CCNC(=O)c1nc2c(-c3ccnc(OC)c3)c(-c3cccc(C#N)c3)nc(N)n2c1-c1ccccn1` [Example 19, 5-Amino-7-(3-cyanophenyl)-N-ethyl-8-(2-methoxypyridin-4-yl)-3-(pyridin-2-yl)imidazo[1,2-c]pyrimidine-2-carboxamide], for which, on Adenosine A2A receptor, the Ki is < 10 nM. Besides, the EC50 in experiment [1] lay within 100 to 1000 nM.

Turning to `CCNC(=O)c1nc2c(-c3cc(C)nc(C)c3)c(-c3ccccc3)nc(N)n2c1Br` [Example 20, 5-Amino-3-bromo-8-(2,6-dimethylpyridin-4-yl)-N-ethyl-7-phenylimidazo[1,2-c]pyrimidine-2-carboxamide], on Adenosine A2A receptor, the Ki is < 10 nM. The EC50 in experiment [1] fell in the range of 100 to 1000 nM.

Turning to `CCNC(=O)c1nc2c(-c3cc(C)nc(C)c3)c(-c3ccccc3)nc(N)n2c1C#N` [Example 21, 5-Amino-3-cyano-8-(2,6-dimethylpyridin-4-yl)-N-ethyl-7-phenylimidazo[1,2-c]pyrimidine-2-carboxamide], the Ki on Adenosine A2A receptor is < 10 nM. The EC50 in experiment [1] is > 1000 nM.

With `CCNC(=O)c1cn2c(NCC)nc(-c3ccccc3)c(-c3cc(C)nc(C)c3)c2n1` [Example 22, 8-(2,6-Dimethylpyridin-4-yl)-N-ethyl-5-(ethylamino)-7-phenylimidazo[1,2-c]pyrimidine-2-carboxamide], the Ki on Adenosine A2A receptor fell in the range of 10 to 100 nM. Further, the EC50 in experiment [1] was > 1000 nM.

For the molecule `CCn1cc(-c2c(-c3cccc(C#N)c3)nc(N)n3cc(C(=O)N4CC(O)C4)nc23)ccc1=O` [Example 24, 3-(5-Amino-8-(1-ethyl-6-oxo-1,6-dihydropyridin-3-yl)-2-(3-hydroxyazetidine-1-carbonyl)imidazo[1,2-c]pyrimidin-7-yl)benzonitrile], at Adenosine A2A receptor, the Ki was < 10 nM. Also, the EC50 in experiment [1] is < 10 nM.

Regarding `CCn1cc(-c2c(-c3cccc(C#N)c3)nc(N)n3cc(C(=O)Nc4cnn(CCO)c4)nc23)ccc1=O` [Example 25, 5-Amino-7-(3-cyanophenyl)-8-(1-ethyl-6-oxo-1,6-dihydropyridin-3-yl)-N-(1-(2-hydroxyethyl)-1H-pyrazol-4-yl)imidazo[1,2-c]pyrimidine-2-carboxamide], the Ki at Adenosine A2A receptor was < 10 nM. Moreover, the EC50 in experiment [1] was 100 to 1000 nM.

On to `CCNC(=O)c1cn2c(N)nc(-c3cccc(C#N)c3)c(-c3ccncc3)c2n1` [Example 26, 5-Amino-7-(3-cyanophenyl)-N-ethyl-8-(pyridin-4-yl)imidazo[1,2-c]pyrimidine-2-carboxamide], for which the Ki on Adenosine A2A receptor is < 10 nM. In addition, in experiment [1], the EC50 is < 10 nM.

Consider `CCNC(=O)c1cn2c(N)nc(-c3cccc(C#N)c3)c(-c3ccncc3C)c2n1` [Example 27, 5-Amino-7-(3-cyanophenyl)-N-ethyl-8-(3-methylpyridin-4-yl)imidazo[1,2-c]pyrimidine-2-carboxamide], for which the Ki on Adenosine A2A receptor is < 10 nM. The EC50 in experiment [1] lay within 10 to 100 nM.

For `CCNC(=O)c1cn2c(N)nc(-c3cccc(C#N)c3)c(-c3ccncc3F)c2n1` [Example 28, 5-Amino-7-(3-cyanophenyl)-N-ethyl-8-(3-fluoropyridin-4-yl)imidazo[1,2-c]pyrimidine-2-carboxamide], the Ki on Adenosine A2A receptor was < 10 nM. Further, in experiment [1], the EC50 was < 10 nM.

In the case of `CCNC(=O)c1cn2c(N)nc(-c3cccc(C#N)c3)c(-c3ccncc3Cl)c2n1` [Example 29, 5-Amino-7-(3-cyanophenyl)-N-ethyl-8-(3-chloropyridin-4-yl)imidazo[1,2-c]pyrimidine-2-carboxamide], the Ki on Adenosine A2A receptor is < 10 nM. The EC50 in experiment [1] was < 10 nM.

On to `CCNC(=O)c1cn2c(N)nc(-c3cccc(C#N)c3)c(-c3ccncc3OC)c2n1` [Example 30, 5-Amino-7-(3-cyanophenyl)-N-ethyl-8-(3-methoxypyridin-4-yl)imidazo[1,2-c]pyrimidine-2-carboxamide], for which the Ki at Adenosine A2A receptor was < 10 nM. Besides, in experiment [1], the EC50 is < 10 nM.

As for `CCNC(=O)c1cn2c(N)nc(-c3cccc(C#N)c3)c(-c3ccncc3C#N)c2n1` [Example 31, 5-Amino-7-(3-cyanophenyl)-N-ethyl-8-(3-cyanopyridin-4-yl)imidazo[1,2-c]pyrimidine-2-carboxamide], the Ki at Adenosine A2A receptor was < 10 nM. In experiment [1], the EC50 fell in the range of 10 to 100 nM.

As for `CCNC(=O)c1cn2c(N)nc(-c3cccc(C#N)c3)c(-c3ccc(C(N)=O)cc3)c2n1` [Example 32, 5-Amino-8-(4-carbamoylphenyl)-7-(3-cyanophenyl)-N-ethylimidazo[1,2-c]pyrimidine-2-carboxamide], on Adenosine A2A receptor, the Ki was < 10 nM. For the same molecule, the EC50 in experiment [1] was in the range of 100 to 1000 nM.

Consider `CCNC(=O)c1cn2c(N)nc(-c3cccc(C#N)c3)c(-c3cnn4ccccc34)c2n1` [Example 33, 5-Amino-7-(3-cyanophenyl)-N-ethyl-8-(pyrazolo[1,5-a]pyridin-3-yl)imidazo[1,2-c]pyrimidine-2-carboxamide], for which, at Adenosine A2A receptor, the Ki is < 10 nM. In experiment [1], the EC50 was in the range of 100 to 1000 nM.

For the molecule `CCNC(=O)c1cn2c(N)nc(-c3cccc(C#N)c3)c(-c3cn[nH]c3C)c2n1` [Example 34, 5-Amino-7-(3-cyanophenyl)-N-ethyl-8-(5-methyl-1H-pyrazol-4-yl)imidazo[1,2-c]pyrimidine-2-carboxamide], at Adenosine A2A receptor, the Ki was < 10 nM. In experiment [1], the EC50 is < 10 nM.

Regarding `CCNC(=O)c1cn2c(N)nc(-c3cccc(C#N)c3)c(-c3ccnn3CC)c2n1` [Example 35, 5-Amino-7-(3-cyanophenyl)-N-ethyl-8-(1-ethyl-1H-pyrazol-5-yl)imidazo[1,2-c]pyrimidine-2-carboxamide], the Ki at Adenosine A2A receptor is < 10 nM. In experiment [1], the EC50 was < 10 nM.

Values taken from patent US11673894B2, “Imidazopyrimidines and triazolopyrimidines as A2A / A2B inhibitors” (Incyte Corporation, priority 2018, dated 2023).
